# Test results published in patent US20060154932A1, “Pharmaceutical compositions and method of treating parkinson's disease” (priority 2002, published 2006).
# Columns and labels:
# Parkinson's disease [1] = conditions: cited from earlier work
# Parkinson's disease [2] = experiment: Unified Parkinson's Disease Rating Scale (UPDRS) Part III motor examination of a patient; type: in vivo, human; conditions: Patient 1
# Protocol: Patent 1, a person, was administered Part III (motor examination) of the Unified Parkinson's Disease Rating Scale (hereinunder abbreviated as UPDRS) and diagnosed as having Parkinson=3 s disease (scoring a 20 in the test). After a period of evaluation of drug therapy options, the patient was prescribed pergolide, 0.25 mg tid and selegiline 5 mg po. After six (6) months on drug therapy, the patient was once again examined with the UPDRS motor subset and scored 16.5. After three (3) months on the drug, 25 mg of VIOXX, once a day was added to the treatment regime. After four (4) additional months, the patient was once again administered the UPDRS, this time scoring a 6.0. After six (6) months on the VIOXX tripartite therapy, the patient was again administered the UPDRS motor examination and scored 4.0. (see Fahn S, Elton R L, Members of the UPDRS Development Committee. Unified Parkinson's disease rating scale. In: Fahn S, Marsden C D, Calne D, Goldstein M, eds. Recent developments in Parkinson=3 s disease, Vol II. Florham Park, N.J.: Macmillan Healthcare Information, 1987:153-163, 293-304): […]
# Parkinson's disease [3] = experiment: Patient-reported tremor in a Parkinson's disease patient; type: in vivo, human; conditions: VIOXX 25 mg once a day added to Endo L-C 100-25 TID
# Protocol: Patient 8 (person one), an adult, was diagnosed as having Parkinson's disease. After evaluation the patient was prescribed Endo L-C 100-25, TID. Approximately three years later, the patient began taking VIOXX (25 mg) once a day. After three weeks, patient noticed that severity of tremors had decreased and the frequency between the tremors had increased. In addition, night time tremors, those associated with sleeping, had dramatically subsided (i.e. by up to 90%). Overall, the patient reports that the tremors have subsided nearly 40%.
smiles,measurement,setting,value
"NC12CC3CC(CC(C3)C1)C2 [Amantadine, amantadine]","patients for whom useful in treating early, mild parkinsonism",Parkinson's disease [1]; 100 to 300 mg/day po,50%
"C#CCN(C)[C@H](C)Cc1ccccc1 [Selegiline, selegiline]",delay of the initiation of levodopa,Parkinson's disease [1]; used as initial treatment,about 1 yr
"CS(=O)(=O)c1ccc(C2=C(c3ccccc3)C(=O)OC2)cc1 [VIOXX, rofecoxib]",UPDRS score,"Parkinson's disease [2]; 25 mg VIOXX once a day added to pergolide and selegiline, after four additional months",6.0
same,UPDRS motor examination score,"Parkinson's disease [2]; after six months on the VIOXX tripartite therapy (VIOXX 25 mg once a day, pergolide, selegiline)",4.0
same,severity of tremors,"Parkinson's disease [3]; Patient 8 (person one), after three weeks",decreased
same,night time tremors (associated with sleeping) subsided,Parkinson's disease [3]; Patient 8,up to 90%
same,tremors subsided overall (patient report),Parkinson's disease [3]; Patient 8,~40%
same,frequency between the tremors,"Parkinson's disease [3]; Patient 8, after three weeks",increased
N[C@@H](Cc1ccc(O)c(O)c1)C(=O)O [levodopa],patients beginning to experience fluctuations in their response (wearing off or on-off effect),Parkinson's disease [1]; after 2 to 5 yr of treatment,> 50%
